Tests used:
[1] = LC retention time (Atlantis T3, 5-95% MeOH gradient, 0.1% formic acid); higher = more retained / less polar
Outline: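 Retention times were recorded for reference standards on a polar reversed-phase C18 column. The standards were of purity ≥ 95%, and the Atlantis T3 column (3 × 150 mm, 3 μm) was run at 0.3 mL/min with a gradient from 5 to 95% methanol over 17.5 min, both water and methanol containing 0.1% formic acid. Detection used high-resolution tandem mass spectrometry on a QExactive Plus, with positive and negative electrospray in separate runs, and peaks were integrated in TraceFinder (5 ppm tolerance, at least three points per peak) before being checked by hand.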

[2] = absolute recovery over mixed-bed multilayer solid-phase extraction; higher = better recovery; conditions: enrichment method: SPE
Outline: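 Absolute recovery was calculated by comparing background-corrected response ratios of samples spiked before extraction with those spiked after it, averaged over at least two replicates. Wastewater (100–250 mL, adjusted to pH 6.5 and glass-fibre filtered) or 1000 mL of unfiltered nanopure water was passed through a three-layer mixed-bed cartridge and eluted with basic and then acidic ethyl acetate/methanol. Standards were added before extraction, after extraction, or not at all, at 200 ng/L in water or 1000 ng/L in wastewater, with exceptions for some classes. Internal standards were added afterwards, and samples were analysed by liquid chromatography with high-resolution tandem mass spectrometry in both ionisation modes.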

[3] = absolute recovery over vacuum-assisted evaporative concentration; higher = better recovery; conditions: enrichment method: VEC
Outline: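 After spiking with standards before concentration, after concentration or not at all, at 1000 ng/L for wastewater or 200 ng/L for nanopure and surface water with class- and compound-specific adjustments, samples of 6 mL influent, 15 mL effluent and 60 mL surface or nanopure water were evaporated at 55 °C and 20 mbar to about 0.3 mL. They were brought to 0.4 mL, centrifuged, given internal standards and analysed by LC-HRMS/MS. Absolute recovery, (response ratio pre − unspiked)/(post − unspiked) × 100, used averages of ≥ 2 replicates.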

| LC retention time [1] [min] | absolute recovery ([2]; nanopure water) [%] | absolute recovery ([2]; surface water) [%] | absolute recovery ([2]; wastewater effluent) [%] | absolute recovery ([2]; wastewater influent) [%] | absolute recovery ([3]; wastewater effluent) [%] | absolute recovery ([3]; wastewater influent) [%] | SMILES |
| --- | --- | --- | --- | --- | --- | --- | --- |
| 7.67 | 84.2 | 78.3 | 83 | 91.8 | 97.1 | 104 | Nc1nc(=O)c2ncn(CCC(CO)CO)c2[nH]1 [Penciclovir] |
| 21 | 84.5 |  | 118 |  | 98.5 |  | CC(C)Cc1ccc(C(C)C(=O)[O-])cc1 (configuration not stated) [Ibuprofen] |
| 11 | 87.9 | 93.7 | 91.7 | 86.8 | 113 | 87.2 | C[NH+](C)CCC(c1ccccc1)c1ccccn1 (configuration not stated) [Pheniramine] |
| 19.9 | 95.5 | 102 | 102 | 84.4 | 104 | 109 | COCCN(C(=O)CS(=O)(=O)[O-])c1c(C)cccc1C [Dimethachlor-ESA] |
| 18.7 | 92.3 | 86.2 | 91.2 | 94 | 106 | 105 | CC1CC2C3CCC4=CC(=O)C=CC4(C)C3(F)C(O)CC2(C)C1(O)C(=O)CO (configuration not stated) [Dexamethason] |
| 12.2 | 68.6 | 71.5 | 70.5 | 77.3 | 102 | 106 | C#CC[N+](C)([O-])C(C)Cc1ccccc1 (configuration not stated) [Deprenyl-N-Oxide] |
| 12 | 97.4 | 89.9 | 90.6 | 77.7 |  | 97.9 | C[NH+](C)CC(c1ccc(O)cc1)C1(O)CCCCC1 (configuration not stated) [O-Desvenlafaxin] |
| 11.7 | 77.2 | 73.9 | 72.6 | 73.8 | 105 |  | O=C([O-])c1cn(C2CC2)c2cc(N3CC[NH2+]CC3)c(F)cc2c1=O [Ciprofloxacin] |
| 16 | 80.2 | 62.2 | 66.4 | 85.8 | 71.5 |  | CC(=O)N1CCN(c2ccc(OCC3COC(Cn4cc[nH+]c4)(c4ccc(Cl)cc4Cl)O3)cc2)CC1 (configuration not stated) [Ketoconazol] |
| 19.5 | 98.3 | 86.5 | 87.2 | 98.8 | 88.4 | 89.8 | O=C(C1CCCCC1)N1CC(=O)N2CCc3ccccc3C2C1 (configuration not stated) [Praziquantel] |
| 12.2 | 90.4 | 94.7 | 90.6 | 98.9 | 102 | 105 | CC[N+]([O-])(CC)CC(=O)Nc1c(C)cccc1C [Lidocaine-N-Oxide] |
| 19.6 | 95.8 | 101 | 91 |  | 103 |  | CCCCC(=O)N(Cc1ccc(-c2ccccc2-c2nnn[n-]2)cc1)C(C(=O)[O-])C(C)C (configuration not stated) [Valsartan] |
| 6.53 | 65.5 | 70.3 | 65.2 | 52.7 | 87.6 |  | NC(=O)Cc1ccc(OCC(O)C[NH3+])cc1 (configuration not stated) [Atenolol-desisopropyl] |
| 16.5 | 104 | 93.9 | 92.6 | 87 | 110 | 106 | COC(=O)c1csc(C)c1S(=O)(=O)[N-]C(=O)n1nc(OC)n(C)c1=O [Thiencarbazone] |
| 19.4 | 103 | 102 | 93.1 | 90.6 | 106 | 108 | COC(=O)c1cccc(C)c1S(=O)(=O)[N-]C(=O)Nc1nc(OCC(F)(F)F)nc(N(C)C)n1 [Triflusulfuron-methyl] |
| 3.5 | 45.5 | 7.1 | 10.1 |  | 108 |  | C[NH+](C)C(C)(C)CO [2-(Dimethylamino)-2-methyl-1-propanol] |
| 12.3 | 82.7 | 83.1 | 86.3 | 83.9 | 106 | 103 | CC(C)(C)[NH2+]CC(O)COc1nsnc1N1CCOCC1 (configuration not stated) [Timolol] |

The remaining lines, values behind:

| SMILES | LC retention time [1] [min] | absolute recovery ([2]; nanopure water) [%] | absolute recovery ([2]; surface water) [%] | absolute recovery ([2]; wastewater effluent) [%] | absolute recovery ([2]; wastewater influent) [%] | absolute recovery ([3]; wastewater effluent) [%] | absolute recovery ([3]; wastewater influent) [%] |
| --- | --- | --- | --- | --- | --- | --- | --- |
| CNC(=O)ON=C(C)SC [Methomyl] | 11.9 | 82.7 | 77.3 | 79 | 79.3 | 98.3 | 110 |
| Cc1cc(Cl)ccc1OC(C)C(=O)[O-] (configuration not stated) [Mecoprop] | 20 | 100 | 99.2 | 94.9 | 94.2 | 101 | 99 |
| CC1COC(=O)c2cc3c(cc21)C(C)(C)C(C)C3(C)C (configuration not stated) [Galaxolidon] | 22.2 | 103 | 104 | 86.1 | 108 | 61.8 | 63.2 |
| CC(=O)Nc1ccc(O)cc1 [Paracetamol (=3-Acetamidophenol)] | 10.3 | 76.7 |  | 79.1 |  | 101 |  |
| CCCC(CCC)(C(=O)[O-])C(=O)O [Dipropylmalonic-acid] | 18.2 | 94.4 | 88.7 | 94.7 | 87.9 | 103 | 109 |
| COCC(=O)N(c1c(C)cccc1C)C(C)C(=O)OC (configuration not stated) [Metalaxyl] | 18.4 | 96.6 | 95.8 | 93.6 | 94.7 | 103 | 97.8 |
| COP(=O)(OC)OC=C(Cl)Cl [Dichlorvos] | 16.8 | 63.4 | 47.3 | 60 | 87.4 | 34.5 | 39.6 |
| COC(=O)c1cc(C(=O)OC)cc(S(=O)(=O)[O-])c1 [Dimethyl-5-Sulfoisophthalate] | 16.1 | 96 | 92.9 | 96.6 | 15.6 | 108 | 90.7 |
| O=C([O-])c1ccc(-c2ccccc2-c2nn[nH]n2)cc1 [Valsartan-acid] | 16.4 | 96.4 | 101 |  | 95.2 |  | 104 |
| COc1ccc2c3c1OC1C(O)C=CC4C(C2)[NH+](C)CCC341 (configuration not stated) [Codein] | 9.16 | 90.2 | 92.6 | 91.7 | 93 | 104 | 102 |
| CCc1cccc(C)c1N(C(=O)CCl)C(C)COC (configuration not stated) [Metolachlor] | 20.6 |  | 93 | 90.6 | 92.5 | 93.1 | 91.7 |
| O=C([O-])C(c1ccccc1Cl)[NH+]1CCc2sccc2C1 (configuration not stated) [Clopidogrel-Carboxylic-Acid] | 14.8 | 93.2 | 94 | 91.1 | 92.8 | 103 | 102 |
| Fc1ccc(C2(Cn3cncn3)OC2c2ccccc2Cl)cc1 (configuration not stated) [Epoxiconazol] | 20.3 | 100 | 95.4 | 93.9 | 92.7 | 103 | 99.3 |
| CCNc1nc(NC(C)C)nc(OC)n1 [Atraton] | 14.4 | 92.8 | 94.2 | 90.4 | 96 | 101 | 102 |
| CN(C)C(=O)NC1CCCCCCC1 [Cycluron] | 18.8 | 91.4 | 91.2 | 89.2 | 94.2 | 92.5 | 106 |
| CC(C)N(C(=O)COc1nnc(C(F)(F)F)s1)c1ccc(F)cc1 [Flufenacet] | 20.1 | 100 | 95.9 | 97.5 | 83.5 | 114 | 95.3 |
| CCOC(=O)C1(c2ccccc2)CC[NH+](C)CC1 [Meperidine] | 12.8 | 88.6 | 87.8 | 86.8 | 96.6 | 99.2 | 103 |
| CS(=O)(=O)c1ccc(C(=O)[O-])c(Cl)c1 [Sulcotrion-CMBA] | 12.1 | 96.8 | 38 | 92.6 | 95.3 | 101 | 109 |
| CC(=O)N(C)c1ccc(N)cc1 [N-(4-Aminophenyl)-N-methyl-acetamid] | 7.84 | 64.8 | 65.4 | 56.8 | 67.5 | 97.6 | 85 |

| SMILES | LC retention time [1] [min] | absolute recovery ([2]; nanopure water) [%] | absolute recovery ([2]; surface water) [%] | absolute recovery ([2]; wastewater effluent) [%] | absolute recovery ([2]; wastewater influent) [%] | absolute recovery ([3]; wastewater effluent) [%] | absolute recovery ([3]; wastewater influent) [%] |
| --- | --- | --- | --- | --- | --- | --- | --- |
| CSc1nc(NC(C)C)nc(NC(C)C)n1 [Prometryn G] | 18.2 | 97.7 | 92.8 | 92.4 | 94.1 | 94.8 | 94.8 |
| CCCC(C)(COC(N)=O)COC(=O)NC(C)C (configuration not stated) [Carisoprodol] | 18.1 | 99.3 | 97.9 | 93.1 | 92.4 | 104 | 102 |
| CCCCCOC(=O)[N-]c1nc(=O)n(C2OC(C)C(O)C2O)cc1F (configuration not stated) [Capecitabin] | 17.7 | 93.3 | 93.1 | 90.8 | 96.3 | 108 | 101 |
| O=C(Nc1ccc(Cl)cc1)Nc1ccc(Cl)c(Cl)c1 [Triclocarban] | 22 | 57.9 | 118 | 91.3 | 64.3 | 113 | 112 |
| O=S(=O)([O-])c1ccc2ccccc2c1 [2-Naphthalenesulfonic-acid] | 17.2 |  |  | 92.6 |  | 114 | 88.2 |
| CN(C(=O)CO)c1c(I)c(C(=O)NCC(O)CO)c(I)c(C(=O)NCC(O)CO)c1I (configuration not stated) [Iomeprol] | 8.92 | 73.5 | 67.8 | 66.5 | 52.4 | 109 | 108 |
| O=C1Nc2ccc(Cl)cc2C(c2ccccc2)=NC1O (configuration not stated) [Oxazepam] | 18.4 | 99.5 | 98.7 | 91.9 | 93.9 | 104 | 98.7 |
| CCOC1Oc2ccc(OS(C)(=O)=O)cc2C1(C)C (configuration not stated) [Ethofumesat] | 19.2 | 98.7 | 102 | 96.1 | 92 | 105 | 94 |
| OC(Cc1ccccc1Cl)(Cn1[nH]cnc1=S)C1(Cl)CC1 (configuration not stated) [Prothioconazole] | 21.2 |  | 94.5 | 41.8 | 14.7 | 96.6 | 39.8 |
| Nc1cn[nH+]c([O-])c1Cl [Chloridazon-desphenyl] | 7.56 | 58.5 | 67.9 | 70.2 | 72.3 | 102 | 98.3 |
| CCCOCC(=Nc1ccc(Cl)cc1C(F)(F)F)n1ccnc1 [Triflumizole] | 21.3 | 85.9 | 104 | 97.8 | 61.8 | 93.9 | 114 |
| Nc1[nH]c2ccccc2[nH+]1 [2-Aminobenzimidazol] | 9.5 | 90.5 | 90.3 | 91.9 | 92 | 103 | 99.3 |
| C=C1CC2C(CCC3(C)C(=O)CCC23)C2(C)C=CC(=O)C=C12 (configuration not stated) [Exemestan] | 19.6 | 91.6 | 96 | 93.2 | 98.3 | 100 | 71.7 |
| CC(C)(C)C(O)C(Oc1ccc(Cl)cc1)n1cncn1 (configuration not stated) [Triadimenol-A] | 20 | 98.4 | 83.6 | 85.5 | 94.1 | 87.1 | 97.4 |
| Cc1cn(C2CC(N=[N+]=[N-])C(CO)O2)c(=O)[nH]c1=O (configuration not stated) [Zidovudine] | 13.1 | 98.2 | 93.4 | 93.9 | 97.1 | 103 | 104 |
| COC(=O)c1ccc(C(F)(F)F)nc1S(=O)(=O)[N-]C(=O)Nc1nc(OC)cc(OC)n1 [Flupyrsulfuron-methyl-] | 19.2 | 98.2 | 97.5 | 93.6 | 89.3 | 65.8 | 59.1 |
| COP(=O)(OC)SCn1c(=O)oc2cc(Cl)cnc21 [Azamethiphos] | 16.6 | 65.5 | 65.7 | 65.1 | 50.5 | 82.9 | 67 |
| COc1c(Cl)ccc(Cl)c1C(=O)[O-] [Dicamba] | 19.3 | 95.6 | 94 | 93.5 | 91.2 | 104 | 106 |

Source: the supplement of paper PMC6470124
